{"source": "patent US20110124842A1", "about": "(priority 2003, published 2011)", "key": {"HIV-1 JR-CSF": {"tested_on": "HIV-1 JR-CSF", "assay_type": "cell-based", "conditions": "JRCSF; peptide at 30 μg/ml; FIG. 49", "procedure": "(§1) FIG. 49 is a bar graph showing the ability of peptide […]-NH2 (SEQ ID NO: 8) to block neutralization of HIV-1 by 4E10. Replication competent HIV-1 (SF 162 and JR-CSF), produced in human PBMCs, were assayed for neutralization by 4E10 (100 μg/ml) in TZM-b1 cells, in the presence (white bars) or absence (black bars) of an excess of peptide.\n(§2) To further investigate the interaction of peptide analogs and 4E10, the inhibitory effect of the best analogs on neutralization by 4E10 was assessed. Neutralization assays were performed in two different formats. In the first, replication competent HIV-1SF162 was assayed for neutralization using TZM-b1 cells as indicator cells (Wei, X., 2002). Alternatively, a pseudotype assay was used in which recombinant HIV-1JR-CSF virions, competent for a single round of infection, were generated using the luciferase reporter plasmid pNL4-3.Luc.R-E-, as described previously (Connor, R. I., 1995; Zwick, M. B., 2003), and the pseudovirus assayed for neutralization using U87.CD4.CCR5 cells as target cells (Bjorndal, A., 1997). In all cases, the competitor peptide ([…]-NH2; SEQ ID NO: 8) and IgG 4E10 were pre-incubated for 30 minutes at 37° C. […] The degree of virus neutralization was determined as a percentage reduction of viral infectivity against an Ab-free control. […]"}, "HIV-1SF162": {"tested_on": "HIV-1SF162", "assay_type": "cell-based", "conditions": "peptide at 30 μg/ml, FIG. 49", "procedure": "as §1, §2"}, "HIV-1JR-FL": {"tested_on": "HIV-1JR-FL", "assay": "Peptide effect on neutralization by antibodies and sera, pseudotyped virus, U87.CD4.CCR5 cells", "assay_type": "cell-based", "conditions": "FIG. 50", "procedure": "FIG. 50 represents graphs showing the effect of peptide […]-NH2 (SEQ ID NO: 8) on neutralization of HIV-1 by polyclonal antibodies and sera. HIV-1JR-FL, pseudotyped using the pNL4-3.Luc reporter plasmid, was assayed for neutralization using pooled polyclonal IgG from HIV-1 seropositive individuals (HIVIG), broadly neutralizing serum from the FDA2 individual and normal human serum spiked with 4E10 at 200 μg/ml in the undiluted serum. Neutralization assays were performed using U87.CD4.CCR5 cells as target cells, in the presence (open symbols) or absence (closed symbols) of peptide […]-NH2 (SEQ ID NO: 8). Note that the zero point in serum dilution corresponds to only 30 μg/ml 94-1 being present.\nTo further investigate the interaction of peptide analogs and 4E10, the inhibitory effect of the best analogs on neutralization by 4E10 was assessed. Neutralization assays were performed in two different formats. In the first, replication competent HIV-1SF162 was assayed for neutralization using TZM-b1 cells as indicator cells (Wei, X., 2002). Alternatively, a pseudotype assay was used in which recombinant HIV-1JR-CSF virions, competent for a single round of infection, were generated using the luciferase reporter plasmid pNL4-3.Luc.R-E-, as described previously (Connor, R. I., 1995; Zwick, M. B., 2003), and the pseudovirus assayed for neutralization using U87.CD4.CCR5 cells as target cells (Bjorndal, A., 1997). In all cases, the competitor peptide ([…]-NH2; SEQ ID NO: 8) and IgG 4E10 were pre-incubated for 30 minutes at 37° C. (60 μg/ml), then the mixture was added (1:1 by volume) to HIV-1, and the resulting mixture incubated for a further hour at 37° C. The mixture of peptide, 4E10, and HIV-1 was then added (1:1 by volume) to the target cells, and the assay developed using luciferase reagent (Promega) following 48-72 hour incubation at 37° C. The degree of virus neutralization was determined as a percentage reduction of viral infectivity against an Ab-free control. All experiments were performed in triplicate and repeated at least twice with similar results."}, "[1]": {"assay": "Circular dichroism spectroscopy of free peptides in solution (helicity)", "assay_type": "physicochemical", "conditions": "FIG. 48", "procedure": "To determine whether the imposed constraints increased the helicity of the peptides, each one was analyzed in solution using circular dichroism (CD) spectroscopy (FIG. 48). An Aviv spectropolarimeter Model 203-02 was used, with cells of 0.1 cm in length, a wavelength step of 0.5 nm and a bandwidth of 1.0 nm. One to three scans were reported. The exact peptide concentrations were determined by UV measurements at 280 nm on a Gison UV detector, model 116."}}, "data": [{"sequence": "NWFDITNWLWYIKKKK [Peptide 94-1, NWFDITNWLWYIKKKK-NH2]", "values": [{"measurement": "block of neutralization by 4E10", "setting": "HIV-1 JR-CSF", "result": "could block the neutralization"}, {"measurement": "block of neutralization by 4E10", "setting": "HIV-1SF162", "result": "could block the neutralization"}, {"measurement": "block of neutralization by normal sera spiked with 4E10", "setting": "HIV-1JR-FL", "result": "blocks neutralization"}, {"measurement": "block of neutralization by the reference sera FDA2", "setting": "HIV-1JR-FL", "result": "does not block neutralization"}, {"measurement": "block of neutralization by polyclonal IgG from HIV-1 infected donors", "setting": "HIV-1JR-FL; HIVIG", "result": "does not block neutralization"}, {"measurement": "helicity in solution by CD", "setting": "[1]", "result": "more helical than 84-1"}]}]}
